Experiments:
Test in all cases: relative viability (nuclei count vs DMSO), 5 days (fraction); higher = more cells survive
ABC-1 = system: ABC-1
How it was run: (§1)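 Lung cancer cell lines were pin-tool dosed in 1536-well plates on the day after seeding, with either a lone drug or a fixed anchor-drug dose plus five library-drug doses (not always all listed) in √10 steps. Nuclei were counted on 4× images after 5 days. Relative viability is the ratio of treated-well to vehicle-well nuclei counts, with each value a median of duplicate plates.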

COR-L23 = system: COR-L23
How it was run: as §1

ChaGo-K-1 = system: ChaGo-K-1
How it was run: as §1

EMC-BAC-2 = system: EMC-BAC-2
How it was run: as §1

HARA = system: HARA
How it was run: as §1

HCC-15 = system: HCC-15
How it was run: as §1

HCC-366 = system: HCC-366
How it was run: as §1

HCC-78 = system: HCC-78
How it was run: as §1

HOP-62 = system: HOP-62
How it was run: as §1

LC-2-ad = system: LC-2-ad
How it was run: as §1

NCI-H1944 = system: NCI-H1944
How it was run: as §1

NCI-H1993 = system: NCI-H1993
How it was run: as §1

NCI-H2023 = system: NCI-H2023
How it was run: as §1

NCI-H2126 = system: NCI-H2126
How it was run: as §1

NCI-H2228 = system: NCI-H2228
How it was run: as §1

NCI-H23 = system: NCI-H23
How it was run: as §1

NCI-H2405 = system: NCI-H2405
How it was run: as §1

NCI-H358 = system: NCI-H358
How it was run: as §1

NCI-H838 = system: NCI-H838
How it was run: as §1

SK-LU-1 = system: SK-LU-1
How it was run: as §1

COc1cc2nccc(Oc3ccc(NC(=O)Nc4cc(C)on4)c(Cl)c3)c2cc1OC [Tivozanib] + C[C@@H](Oc1cc(-c2cnn(C3CCNCC3)c2)cnc1N)c1c(Cl)ccc(F)c1Cl [Crizotinib] (partner 1 µM)
relative viability (ABC-1; first compound 0.005 µM): 1.09
relative viability (ABC-1; first compound 0.01581 µM): 1.12
relative viability (ABC-1; first compound 0.05 µM): 1.09
relative viability (ABC-1; first compound 0.1581 µM): 1.08
relative viability (ABC-1; first compound 0.5 µM): 0.874
relative viability (COR-L23; first compound 0.005 µM): 0.622
relative viability (COR-L23; first compound 0.01581 µM): 0.615
relative viability (COR-L23; first compound 0.05 µM): 0.659
relative viability (COR-L23; first compound 0.1581 µM): 0.643
relative viability (COR-L23; first compound 0.5 µM): 0.543
relative viability (ChaGo-K-1; first compound 0.005 µM): 1.05
relative viability (ChaGo-K-1; first compound 0.01581 µM): 1.17
relative viability (ChaGo-K-1; first compound 0.05 µM): 1.19
relative viability (ChaGo-K-1; first compound 0.1581 µM): 1.17
relative viability (ChaGo-K-1; first compound 0.5 µM): 0.849
relative viability (EMC-BAC-2; first compound 0.005 µM): 0.769
relative viability (EMC-BAC-2; first compound 0.01581 µM): 0.807
relative viability (EMC-BAC-2; first compound 0.05 µM): 0.74
relative viability (EMC-BAC-2; first compound 0.1581 µM): 0.754
relative viability (EMC-BAC-2; first compound 0.5 µM): 0.791
relative viability (HARA; first compound 0.005 µM): 0.976
relative viability (HARA; first compound 0.01581 µM): 1
relative viability (HARA; first compound 0.05 µM): 1.21
relative viability (HARA; first compound 0.1581 µM): 1.09
relative viability (HARA; first compound 0.5 µM): 0.974
relative viability (HCC-15; first compound 0.005 µM): 0.811
relative viability (HCC-15; first compound 0.01581 µM): 0.824
relative viability (HCC-15; first compound 0.05 µM): 0.796
relative viability (HCC-15; first compound 0.1581 µM): 0.79
relative viability (HCC-15; first compound 0.5 µM): 0.811
relative viability (HCC-366; first compound 0.005 µM): 0.515
relative viability (HCC-366; first compound 0.01581 µM): 0.59
relative viability (HCC-366; first compound 0.05 µM): 0.502
relative viability (HCC-366; first compound 0.1581 µM): 0.487
relative viability (HCC-366; first compound 0.5 µM): 0.372
relative viability (HCC-78; first compound 0.005 µM): 0.352
relative viability (HCC-78; first compound 0.01581 µM): 0.365
relative viability (HCC-78; first compound 0.05 µM): 0.313
relative viability (HCC-78; first compound 0.1581 µM): 0.364
relative viability (HCC-78; first compound 0.5 µM): 0.351
relative viability (HOP-62; first compound 0.005 µM): 0.557
relative viability (HOP-62; first compound 0.01581 µM): 0.939
relative viability (HOP-62; first compound 0.05 µM): 0.928
relative viability (HOP-62; first compound 0.1581 µM): 0.853
relative viability (HOP-62; first compound 0.5 µM): 0.919
relative viability (LC-2-ad; first compound 0.005 µM): 0.413
relative viability (LC-2-ad; first compound 0.01581 µM): 0.426
relative viability (LC-2-ad; first compound 0.05 µM): 0.522
relative viability (LC-2-ad; first compound 0.1581 µM): 0.468
relative viability (LC-2-ad; first compound 0.5 µM): 0.347
relative viability (NCI-H1944; first compound 0.005 µM): 1.13
relative viability (NCI-H1944; first compound 0.01581 µM): 1.05
relative viability (NCI-H1944; first compound 0.05 µM): 1.1
relative viability (NCI-H1944; first compound 0.1581 µM): 1.02
relative viability (NCI-H1944; first compound 0.5 µM): 1.28
relative viability (NCI-H1993; first compound 0.005 µM): 0.764
relative viability (NCI-H1993; first compound 0.01581 µM): 0.852
relative viability (NCI-H1993; first compound 0.05 µM): 0.926
relative viability (NCI-H1993; first compound 0.1581 µM): 0.707
relative viability (NCI-H1993; first compound 0.5 µM): 0.852
relative viability (NCI-H2023; first compound 0.005 µM): 0.555
relative viability (NCI-H2023; first compound 0.01581 µM): 0.717
relative viability (NCI-H2023; first compound 0.05 µM): 0.657
relative viability (NCI-H2023; first compound 0.1581 µM): 0.645
relative viability (NCI-H2023; first compound 0.5 µM): 0.546
relative viability (NCI-H2126; first compound 0.005 µM): 0.965
relative viability (NCI-H2126; first compound 0.01581 µM): 0.946
relative viability (NCI-H2126; first compound 0.05 µM): 1.03
relative viability (NCI-H2126; first compound 0.1581 µM): 0.912
relative viability (NCI-H2126; first compound 0.5 µM): 1.03
relative viability (NCI-H2228; first compound 0.005 µM): 0.439
relative viability (NCI-H2228; first compound 0.01581 µM): 0.421
relative viability (NCI-H2228; first compound 0.05 µM): 0.491
relative viability (NCI-H2228; first compound 0.1581 µM): 0.453
relative viability (NCI-H2228; first compound 0.5 µM): 0.605
relative viability (NCI-H23; first compound 0.005 µM): 0.544
relative viability (NCI-H23; first compound 0.01581 µM): 0.541
relative viability (NCI-H23; first compound 0.05 µM): 0.474
relative viability (NCI-H23; first compound 0.1581 µM): 0.461
relative viability (NCI-H23; first compound 0.5 µM): 0.459
relative viability (NCI-H2405; first compound 0.005 µM): 0.859
relative viability (NCI-H2405; first compound 0.01581 µM): 0.846
relative viability (NCI-H2405; first compound 0.05 µM): 0.933
relative viability (NCI-H2405; first compound 0.1581 µM): 0.903
relative viability (NCI-H2405; first compound 0.5 µM): 0.803
relative viability (NCI-H358; first compound 0.005 µM): 0.594
relative viability (NCI-H358; first compound 0.01581 µM): 0.706
relative viability (NCI-H358; first compound 0.05 µM): 0.622
relative viability (NCI-H358; first compound 0.1581 µM): 0.604
relative viability (NCI-H358; first compound 0.5 µM): 0.462
relative viability (NCI-H838; first compound 0.005 µM): 0.886
relative viability (NCI-H838; first compound 0.01581 µM): 0.82
relative viability (NCI-H838; first compound 0.05 µM): 0.857
relative viability (NCI-H838; first compound 0.5 µM): 0.779
relative viability (SK-LU-1; first compound 0.005 µM): 0.909
relative viability (SK-LU-1; first compound 0.01581 µM): 0.864
relative viability (SK-LU-1; first compound 0.05 µM): 0.932
relative viability (SK-LU-1; first compound 0.1581 µM): 0.614
relative viability (SK-LU-1; first compound 0.5 µM): 0.84

From the supplement of paper PMC10307832
